We go through one compound from patent publication US20040097565A1, “Analgesic and antiinflammatory drugs” (priority 2001, published 2004).

Marks after values point to notes of the source that are not given here.

Test [1] deals with pain threshold at right rear limb plantar part of SHRSP strain male rats. Briefly: Pain threshold improving action in SHRSP rat (Randall & Selitto's method). In kind it is in vivo. The conditions noted are these: for Pain threshold (g) before administration of compound A: baseline before oral administration. On the procedure:
Pain Threshold Improving Action in SHRSP Rat (Easily Cerebral Apoplexy Developing Spontaneous Hypertension Rat)
SHRSP strain male rats (27 weeks old, Nihon Clea, 6 animals per group) were used. […] Measurement of a pain threshold value was performed according to a Randall & Selitto's method (Arch. Int. Pharmacodyn. Ther. 111, 409-419, 1957). Immediately after therefrom, a compound A [2-ethoxy-1-[[2′-(5-oxo-2,5-dihydro-1,2,4-oxadoazol-3-yl)biphenyl-4-yl]methyl]-1H-benzimidazole-7-carboxylic acid] was orally administered (0.5 ml/100 g, b.w.) and, one hour after, a pain threshold value was measured. Only a solvent was orally administered to a control group. Regarding the effect of a specimen, drug efficacy assessment was performed by threshold pressure of a control group and a specimen administration group.

Test [2] relates to carrageenin edema, right rear limb plantar part of SD strain male rats. Briefly: Carrageenin edema method (antiinflammatory action). In kind it is in vivo, rat. The settings on record: 30 mg/kg oral, 1 hour before carrageenin, limb volume 3 hours after, relative to control. On the procedure: Method: SD strain male rats (6 weeks old, Nihon Clea) were used at 6 animals per group. The carrageenin edema method was performed according to a method of Winter et al. (Proc. Soc. exp. Biol. Med., 111, 544-547, 1962). After a volume of a right rear limb plantar part was measured, a specimen [compound A: 2-ethoxy-1-[[2′-(5-oxo-2,5-dihydro-1,2,4-oxadiazol-3-yl)biphenyl-4-yl]methyl]-1H benzimidazole-7-carboxylic acid] was orally administered (1 ml/100 g), and water was additionally added to a total amount of 5 ml/rat. After one hour, 0.05 ml of a 1% carrageenin physiological saline solution was subcutaneously injected to induce edema. Whereby, a volume of a right rear limb plantar part was measured after 3 hours. The effect of a specimen was obtained by a difference of a limb volume between before carrageenin injection and after 3 hours, and calculating an inhibition rate (%) relative to a control group.

The subject of test [3] is acetic acid writhing in ICR strain male mice. Briefly: Acetic acid writhing method (analgesic action). In kind it is in vivo, mouse. The settings on record: 30 mg/kg oral, 30 minutes before 0.6% acetic acid i.p., counted for 20 minutes. On the procedure:
Acetic Acid Writhing Method
Method: ICR strain male mice (5 weeks old, Nihon Clea) were used at 10 animals per group, and a specimen [compound A: 2-ethocy-1-[[2′-(5-oxo-2,5-dihydro-1,2,4-oxadiazol-3-yl)biphenyl-4-yl]methyl]-1H-benzimidazole-7-carboxylic acid] was orally administered (0.2 ml/10 g). After 30 minutes, a 0.6% acetic acid solution was intraperitoneally injected (0.1 ml/10 g) and, immediately, mice were placed into a transparent acryl resin observation cage, a time of writhing and stretching induced for 20 minutes therefrom was counted, and an inhibition rate (%) was calculated from average times of a control group and a specimen administration group.

Regarding `CCOc1nc2cccc(C(=O)O)c2n1Cc1ccc(-c2ccccc2-c2nc(=O)o[nH]2)cc1` [Compound A, 2-Ethoxy-1-[[2′-(5-oxo-2,5-dihydro-1,2,4-oxadiazol-3-yl)biphenyl-4-yl]methyl]-1H-benzimidazole-7-carboxylic acid], the “Pain threshold (g) before administration of compound A” value in test [1] (1 mg/kg group) stood at 210 g; in test [1] (3 mg/kg group), 213 g; in test [1] (10 mg/kg group), 212 g; in test [1] (30 mg/kg group), 214 g. In addition, the “Pain threshold (g) 1 hour after administration of compound A” value in test [1] (1 mg/kg oral) is reported as 277* g; in test [1] (3 mg/kg oral) it was 352* g; in test [1] (10 mg/kg oral), 430* g; in test [1] (30 mg/kg oral), 470* g. In addition, the “Inhibition rate (%) of carrageenin edema” value in test [2] was 34* %. In addition, the “Inhibition rate (%) of writhing and stretching” value in test [3] is given as 52* %.
